From US7417036B2, “Crystal form of adefovir dipivoxil and its preparation” (Tianjin Kinsly Pharmaceutical Co. Ltd., priority 2002, dated 2008)
“And” between values parts separate entries of the source, which are not always exact repeats. Equal values may be shown once.

Experiment: Kinetic studies of the plasma concentration in animals with different crystalline forms of AD (oral, monkeys; adefovir measured in serum by HPLC)
Assay type: in vivo, Macaques
Experimental: The experiment was carried out by orally administering to monkeys the drugs in order to investigate the in vivo absorption of two crystalline forms of AD: the novel crystalline AD of the present invention produced by Tianjin Kinsly pharmaceutical R & D Co. Ltd. and crystalline form I of AD prepared according to the method of GILEAD SCIENCES INC. The experiment provides useful clinical references for the application of novel crystalline AD.
Tablets of novel crystalline form of AD, white, each of which contains 10 mg of adefovir, Tianjin Kinsly pharmaceutical R&D Co. Ltd., batch number 020320.
Tablets of AD crystalline form I, white, each of which contains 10 mg of adefovir, Tianjin Kinsly pharmaceutical R&D Co. Ltd., batch number 020225.
Macaques, weighing from 5 kg to 8 kg (certificate No: 2001-03, approved by Beijing Forestry Administration in the document of [2001] 83) were provided by Xie'er Animal Health Caring Science and Technology Co. Ltd (Beijing, P. R. China).
As the pro-drug of adefovir, AD is the bis-pivaloyloxymethyl ester of adefovir, which increases the in vivo bioavailability of orally administered adefovir. AD can be rapidly metabolized into PMEA, rendering it undetectable in blood. Thus the concentration of its parent compound was measured.
Mobile phase: 0.2% phosphoric acid-methanol-B7 (97:3:0.5) degassed and filtrated through 0.45 μm milipore filter.
Stationary phase: C18-column (4.6×250 mm) packed with 5μ fillers, Tianjin Tianhe Chromatogram Inc, the column temperature from 18° C. to 22° C.
Detection: the UV detection wavelength λ=260 nm (0.01AUFS)
A given volume of serum was taken and an equal volume of 10% trichloroacetic acid was added. The mixture was shaken thoroughly and kept still for more than 30 min to precipitate the proteins, then centrifuged at 10000 rpm for 2 min. The precipitates were separated and 30 μL of the supernat was removed for injection.
The experiment was started one week after intestinal worms were dispelled from the animals. Eight animals were randomly assigned into two groups, each consisting of four animals. The animals were fasted for 12 h and were orally administered the novel crystalline form of AD for one group or crystalline form I of AD for another group at a dose of 20 mg/kg together with 200 ml of water. 2 hours after administration, the animals were fed in a fixed quantity. 2.0 ml samples of whole blood were collected from the elbow veins before administration and 10, 20, 30, 45 min and 1, 2, 4, 6, 8, 12, and 24 h after administration. The serum was separated and freeze-stored for measurement. A cross-experiment was done similarly 2 weeks later.
The pharmacokinetic parameters were calculated based on the plasma concentrations at different time points. The time to peak concentration (Tpeak) and the maximum concentration (Cmax) used the measured value. The terminal phase elimination rate constant (Ke) was obtained by fitting the linear section of the curve of logarithm of the plasma concentration of drug in terminal phase versus time and the terminal phase clearance half life time (T1/2) was calculated by dividing 0.693 by Ke. AUC0-t was calculated according to the trapezoid rule.
Apparent volume of distribution (Vd)=dosage/(AUCXKe);
Total Clearance (CL)=dosage/AUC.
Comparison of the data of the two crystalline form: Data of Cmax, Ke, T1/2 and AUC0-t were statistically processed by t test, while Tpeak was processed by non-parametric test. In addition, Comparison of bio-equivalence was carried out based on Cmax and AUC0-t by using two one-sided t test.
Eight macaques were assigned into two groups, group for the novel crystalline form and the group for crystalline form I. The animals were administered according to an open randomized crossover scheme. Afterward, adefovir concentrations in serum were measured at the predetermined time points. […]

[1] = adefovir, oral 20 mg/kg, macaques, average of 8 animals (ASD row)
[2] = adefovir, oral 20 mg/kg, macaques, individual animal No. 1-8, listed as Crystalline form I, 20 mg/kg

Compound: CC(C)(C)C(=O)OCOP(=O)(COCCn1cnc2c(N)ncnc21)OCOC(=O)C(C)(C)C [crystalline form I, reference compound]
- Adefovir concentrations in serum (Plasma concentrations versus time), average (0.167 h after oral administration, 20 mg/kg, macaques, average of 8 animals (ASD row)): 77.0 ng/mL
- Adefovir concentrations in serum (Plasma concentrations versus time) (0.167 h after oral administration, 20 mg/kg, macaques, individual animal No. 1-8, 20 mg/kg): 66.6 ng/mL and 90.1 ng/mL
- Adefovir concentrations in serum (Plasma concentrations versus time), average (0.333 h after oral administration, 20 mg/kg, macaques, average of 8 animals (ASD row)): 235.4 ng/mL
- Adefovir concentrations in serum (Plasma concentrations versus time) (0.333 h after oral administration, 20 mg/kg, macaques, individual animal No. 1-8, 20 mg/kg): 148.0 ng/mL
- Adefovir concentrations in serum (Plasma concentrations versus time), average (0.5 h after oral administration, 20 mg/kg, macaques, average of 8 animals (ASD row)): 546.7 ng/mL
- Adefovir concentrations in serum (Plasma concentrations versus time) (0.5 h after oral administration, 20 mg/kg, macaques, individual animal No. 1-8, 20 mg/kg): 397.9 ng/mL
- Adefovir concentrations in serum (Plasma concentrations versus time), average (0.75 h after oral administration, 20 mg/kg, macaques, average of 8 animals (ASD row)): 350.9 ng/mL
- Adefovir concentrations in serum (Plasma concentrations versus time) (0.75 h after oral administration, 20 mg/kg, macaques, individual animal No. 1-8, 20 mg/kg): 305.2 ng/mL
- Adefovir concentrations in serum (Plasma concentrations versus time), average (1 h after oral administration, 20 mg/kg, macaques, average of 8 animals (ASD row)): 285.2 ng/mL
- Adefovir concentrations in serum (Plasma concentrations versus time) (1 h after oral administration, 20 mg/kg, macaques, individual animal No. 1-8, 20 mg/kg): 196.6 ng/mL
- Adefovir concentrations in serum (Plasma concentrations versus time), average (2 h after oral administration, 20 mg/kg, macaques, average of 8 animals (ASD row)): 230.5 ng/mL
- Adefovir concentrations in serum (Plasma concentrations versus time) (2 h after oral administration, 20 mg/kg, macaques, individual animal No. 1-8, 20 mg/kg): 161.3 ng/mL
- Adefovir concentrations in serum (Plasma concentrations versus time), average (4 h after oral administration, 20 mg/kg, macaques, average of 8 animals (ASD row)): 177.5 ng/mL
- Adefovir concentrations in serum (Plasma concentrations versus time) (4 h after oral administration, 20 mg/kg, macaques, individual animal No. 1-8, 20 mg/kg): 89.3 ng/mL
- Adefovir concentrations in serum (Plasma concentrations versus time), average (6 h after oral administration, 20 mg/kg, macaques, average of 8 animals (ASD row)): 146.8 ng/mL
- Adefovir concentrations in serum (Plasma concentrations versus time) (6 h after oral administration, 20 mg/kg, macaques, individual animal No. 1-8, 20 mg/kg): 102.0 ng/mL
- Adefovir concentrations in serum (Plasma concentrations versus time), average (8 h after oral administration, 20 mg/kg, macaques, average of 8 animals (ASD row)): 116.7 ng/mL
- Adefovir concentrations in serum (Plasma concentrations versus time) (8 h after oral administration, 20 mg/kg, macaques, individual animal No. 1-8, 20 mg/kg): 82.9 ng/mL
- Adefovir concentrations in serum (Plasma concentrations versus time), average (12 h after oral administration, 20 mg/kg, macaques, average of 8 animals (ASD row)): 86.0 ng/mL
- Adefovir concentrations in serum (Plasma concentrations versus time) (12 h after oral administration, 20 mg/kg, macaques, individual animal No. 1-8, 20 mg/kg): 70.1 ng/mL and 72.6 ng/mL
- Adefovir concentrations in serum (Plasma concentrations versus time), average (24 h after oral administration, 20 mg/kg, macaques, average of 8 animals (ASD row)): 44.3 ng/mL
- Adefovir concentrations in serum (Plasma concentrations versus time) (24 h after oral administration, 20 mg/kg, macaques, individual animal No. 1-8, 20 mg/kg): 36.8 ng/mL and 56.6 ng/mL
- Vd (adefovir apparent volume of distribution, oral 20 mg/kg, macaques, individual animal No. 1-8, 20 mg/kg): 125.6 L and 107.3 L and 85.8 L and 95.0 L and 145.1 L and 76.6 L and 158.8 L and 99.9 L
- average AUCO-T (adefovir, oral 20 mg/kg): 2723.82 ng·h/mL
- average Tpeak (adefovir, oral 20 mg/kg): 0.53 h
- average apparent volume of distribution (Vc) (adefovir, oral 20 mg/kg): 17.50 L
- average elimination half-life time (adefovir, oral 20 mg/kg): 10.5 h
- average peak concentration (adefovir, oral 20 mg/kg): 551.21 ng/mL
- Cmax, average (adefovir, oral 20 mg/kg, macaques, average of 8 animals): 551.21 ng/mL
- CL, average [1]: 7723.2 mL/h
- Ke, average [1]: 0.072 L/h
- T1/2, average [1]: 10.5 h
- Tpeak, average [1]: 0.53 h
- Vd, average [1]: 117.0 L
- AUC0-t, average (adefovir, oral 20 mg/kg, macaques, average of 8 animals, listed as Crystalline form I, 20 mg/kg): 2723.8 ng·h/mL
- AUC0-t, average (adefovir, oral 20 mg/kg, macaques, average of 8 animals, listed as Form I, 20 mg/kg): 2724 ng·h/mL
- AUC0-t [2]: 2214.1 ng·h/mL and 2624.4 ng·h/mL and 2188.0 ng·h/mL and 3647.5 ng·h/mL and 3379.4 ng·h/mL and 3452.3 ng·h/mL and 2317.8 ng·h/mL and 1967.0 ng·h/mL
- Cmax [2]: 402.2 ng/mL and 785.4 ng/mL and 366.2 ng/mL and 698.1 ng/mL and 915.4 ng/mL and 432.2 ng/mL and 412.3 ng/mL and 397.9 ng/mL
- T1/2 [2]: 9.6 h and 9.8 h and 6.5 h and 12.0 h and 17.0 h and 9.2 h and 12.8 h and 6.8 h
- Tpeak [2]: 0.5 h (7×) and 0.75 h
- Cmax (adefovir, oral 20 mg/kg, macaques, individual animal No. 1-8, listed as Form I, 20 mg/kg): 689.1 ng/mL
